The source of these data is patent publication US20090227575A1, “7H-PYRROLO[2,3-H]QUINAZOLINE COMPOUNDS, THEIR USE AS mTOR KINASE AND PI3 KINASE INHIBITORS, AND THEIR [sequence]” (Wyeth, priority 2008, published 2009).

Holding throughout (type): biochemical
For experiment [1], the target named is Human mTOR (Homo sapiens, UniProt P42345). Kind of experiment: mTOR kinase assay (DELFIA format, purified enzyme). More on the design: FLAG. The conditions noted are these: read-out: TOR Kinase IC50.
Experiment [2] deals with PI3K-alpha (Homo sapiens, UniProt P42336). The experiment can be described thus: PI3K-alpha fluorescence polarization assay. The conditions noted are these: read-out: PI3 Kinase α IC50. How it is done:
(§1) The reaction buffer was 20 mM HEPES, pH 7.5, 2 mM MgCl2, 0.05% CHAPS; and 0.01% βME (added fresh). The Stop/Detection Buffer was 100 mM HEPES, pH 7.5, 4 mM EDTA, 0.05% CHAPS; ATP 20 mM in water; PIP2 (diC8, Echelon, Salt Lake City Utah cat #P-4508) 1 mM in water (MW=856.5). The GST-GRP was 1.75 mg/mL or 1.4 mg/mL in 10% glycerol. The Red detector (TAMRA) was 2.5 μM. Nunc 384-well black polypropylene fluorescent plates were used for PI3K assays.
(§2) The assay is run by placing 5 μL of diluted enzyme per well, then 5 μL of diluted compound (or 9.5 μL enzyme then 0.5 μL compound in DMSO) is added and mixed. Then, 10 μL substrate is added to start the reaction. The samples are incubated 30-60 minutes, then the reaction is stopped by adding 20 μL stop/detector mix. PI3K is diluted with reaction buffer (e.g., 5 μL or 7.5 μL PI3K into 620 μL reaction buffer), and 5 μL of diluted enzyme is used per well. A 5 μL portion of reaction buffer or of drug diluted in buffer (e.g., 4 μL/100 so final DMSO is 1% in reaction) is added to each. Pipetting up and down mixes the samples. Alternatively, the enzyme can be diluted to 1215 μL. In this case 9.8 μL is added per well and 0.2 μL compound is added in DMSO.
(§3) To prepare 1 mL of substrate solution, 955 μL reaction buffer, 40 μL PIP2, and 2.5 μL ATP are mixed. 10 μL of substrate is added to each well to start the reaction. […] The stop/detector mix is prepared by mixing 4 μL Red detector and 1.6 μL or 2.0 μL GST-GRP with 1 mL stop buffer, which results in 10 nM probe and 70 nM GST-GRP. 20 μL of the stop/detector mix is added to each well to stop the reaction. The plates are read after 30-90 minutes keeping the red probe solutions dark. For the zero time point, stop/detector mix is added to the enzyme just before adding substrate. For an extra control, stop/detector mix is added to buffer (no enzyme) and substrate or to just buffer (no substrate). […] The recommended reaction has 0.06 μL per 20 μL (0.015 μg/20 μL) or 0.01125 μg/15 μL or 0.75 μg/mL.
(§4) Plates are read on machines with filters for TAMRA. The units are mP with no enzyme controls reading app 190-220 mP units. Fully active enzyme reduces fluorescence polarization down to 70-100 mP after 30 minutes. An active compound raises the mP values halfway to control or to 120-150 mP units.
A general note: In fluorescence polarisation assays a small probe gives low polarisation when free and higher when bound to something large.

Experiment [3] concerns the target PI3K-gamma (Homo sapiens, UniProt P48736). Kind of experiment: PI3K-gamma fluorescence polarization assay. As to conditions: read-out: PI3 Kinase γ IC50. How it is done: as §1, §2, §3, §4

PI3K-gamma, sequence (P48736 whole entry, species assumed): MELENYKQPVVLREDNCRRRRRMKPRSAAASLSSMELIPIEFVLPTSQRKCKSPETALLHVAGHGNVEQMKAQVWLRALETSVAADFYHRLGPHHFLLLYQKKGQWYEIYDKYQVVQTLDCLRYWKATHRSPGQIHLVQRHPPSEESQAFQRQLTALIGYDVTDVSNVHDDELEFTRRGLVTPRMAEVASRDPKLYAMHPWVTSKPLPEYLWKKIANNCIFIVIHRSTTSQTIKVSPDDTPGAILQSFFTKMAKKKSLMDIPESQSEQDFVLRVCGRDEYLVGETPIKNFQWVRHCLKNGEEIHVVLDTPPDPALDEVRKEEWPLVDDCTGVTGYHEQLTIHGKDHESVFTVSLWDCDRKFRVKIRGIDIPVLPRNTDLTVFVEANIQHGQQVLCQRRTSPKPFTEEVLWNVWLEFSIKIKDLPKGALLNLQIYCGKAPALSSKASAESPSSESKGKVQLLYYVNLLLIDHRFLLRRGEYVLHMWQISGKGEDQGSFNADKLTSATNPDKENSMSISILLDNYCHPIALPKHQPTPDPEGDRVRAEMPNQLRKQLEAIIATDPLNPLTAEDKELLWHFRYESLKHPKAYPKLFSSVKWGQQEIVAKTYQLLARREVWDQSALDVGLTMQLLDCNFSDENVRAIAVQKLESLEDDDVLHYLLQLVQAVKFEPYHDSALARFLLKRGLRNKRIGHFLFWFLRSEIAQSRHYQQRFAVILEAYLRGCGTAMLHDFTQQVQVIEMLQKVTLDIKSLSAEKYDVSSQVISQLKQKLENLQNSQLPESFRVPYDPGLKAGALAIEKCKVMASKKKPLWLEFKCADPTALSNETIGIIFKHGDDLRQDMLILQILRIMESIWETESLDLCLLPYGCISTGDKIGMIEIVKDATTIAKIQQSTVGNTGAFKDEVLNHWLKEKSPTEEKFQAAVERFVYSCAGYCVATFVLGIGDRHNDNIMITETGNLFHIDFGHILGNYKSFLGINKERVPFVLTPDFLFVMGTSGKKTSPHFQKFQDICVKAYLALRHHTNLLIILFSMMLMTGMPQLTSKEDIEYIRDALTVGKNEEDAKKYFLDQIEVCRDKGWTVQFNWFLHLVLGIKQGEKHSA
PI3K-alpha, sequence (P42336 whole entry, species assumed): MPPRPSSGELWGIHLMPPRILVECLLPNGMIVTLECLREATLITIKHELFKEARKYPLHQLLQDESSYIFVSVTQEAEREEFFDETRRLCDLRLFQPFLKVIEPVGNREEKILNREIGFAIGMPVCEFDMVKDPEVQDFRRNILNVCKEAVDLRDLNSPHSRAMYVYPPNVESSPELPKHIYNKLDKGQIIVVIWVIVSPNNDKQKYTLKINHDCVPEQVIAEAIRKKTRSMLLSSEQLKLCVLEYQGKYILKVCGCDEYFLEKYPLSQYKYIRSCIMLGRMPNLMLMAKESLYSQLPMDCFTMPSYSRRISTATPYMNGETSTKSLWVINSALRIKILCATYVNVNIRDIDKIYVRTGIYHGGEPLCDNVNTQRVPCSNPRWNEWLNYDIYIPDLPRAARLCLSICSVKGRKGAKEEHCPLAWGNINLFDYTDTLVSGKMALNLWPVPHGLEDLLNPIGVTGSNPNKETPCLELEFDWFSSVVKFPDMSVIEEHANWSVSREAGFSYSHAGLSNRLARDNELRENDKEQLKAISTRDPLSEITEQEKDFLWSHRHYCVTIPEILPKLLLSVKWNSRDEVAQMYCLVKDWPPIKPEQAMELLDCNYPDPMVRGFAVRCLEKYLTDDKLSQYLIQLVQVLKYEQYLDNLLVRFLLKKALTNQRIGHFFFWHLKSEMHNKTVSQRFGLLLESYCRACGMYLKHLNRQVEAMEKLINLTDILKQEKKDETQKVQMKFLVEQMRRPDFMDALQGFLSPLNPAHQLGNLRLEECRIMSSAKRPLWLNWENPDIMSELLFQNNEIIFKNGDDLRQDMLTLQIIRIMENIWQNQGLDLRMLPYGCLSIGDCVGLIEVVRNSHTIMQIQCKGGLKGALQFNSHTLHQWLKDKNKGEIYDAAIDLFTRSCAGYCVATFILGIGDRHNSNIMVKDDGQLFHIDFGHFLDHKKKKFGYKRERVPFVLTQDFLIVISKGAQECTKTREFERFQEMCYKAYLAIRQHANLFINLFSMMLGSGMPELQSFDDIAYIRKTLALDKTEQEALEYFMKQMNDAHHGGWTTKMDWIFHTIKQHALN
PI3K-alpha, sequence (P27986 whole entry partner, species assumed): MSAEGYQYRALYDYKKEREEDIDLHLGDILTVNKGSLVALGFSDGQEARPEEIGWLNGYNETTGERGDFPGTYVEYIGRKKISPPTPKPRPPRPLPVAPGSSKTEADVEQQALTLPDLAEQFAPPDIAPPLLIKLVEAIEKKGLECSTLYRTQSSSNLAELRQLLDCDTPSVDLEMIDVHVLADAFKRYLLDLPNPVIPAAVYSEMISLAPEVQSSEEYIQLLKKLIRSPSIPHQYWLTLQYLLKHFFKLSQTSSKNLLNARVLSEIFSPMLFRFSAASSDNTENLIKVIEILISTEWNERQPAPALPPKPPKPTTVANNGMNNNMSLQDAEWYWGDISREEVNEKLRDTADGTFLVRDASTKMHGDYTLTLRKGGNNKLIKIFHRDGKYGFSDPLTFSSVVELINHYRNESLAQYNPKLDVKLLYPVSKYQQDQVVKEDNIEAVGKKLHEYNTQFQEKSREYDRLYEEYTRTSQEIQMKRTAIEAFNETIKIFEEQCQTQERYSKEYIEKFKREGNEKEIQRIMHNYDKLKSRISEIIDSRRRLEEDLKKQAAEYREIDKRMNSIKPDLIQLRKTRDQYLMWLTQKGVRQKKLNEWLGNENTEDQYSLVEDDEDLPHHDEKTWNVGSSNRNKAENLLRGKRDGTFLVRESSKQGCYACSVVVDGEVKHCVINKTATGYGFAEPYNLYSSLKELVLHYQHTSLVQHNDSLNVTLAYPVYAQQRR

`Cn1ccc2c3nc(-c4ccc(NC(=O)Nc5ccncc5)cc4)nc(N4CCOCC4)c3ccc21` [Example 11, 1-[4-(7-methyl-4-morpholin-4-yl-7H-pyrrolo[2,3-h]quinazolin-2-yl)phenyl]-3-pyridin-4-ylurea]: the values for the half-maximal inhibitory concentration (IC50) in experiment [1], in experiment [2] and in experiment [3] were 3.7 nM, 101 nM and 437 nM, respectively.
With `CCC(O)c1cccc(-c2nc(N3CCOCC3)c3ccc4c(ccn4C)c3n2)c1` (stereo not drawn) [Example 25, 1-[3-(7-methyl-4-morpholin-4-yl-7H-pyrrolo[2,3-h]quinazolin-2-yl)phenyl]propan-1-ol], the IC50 (as a rule, the concentration that gives 50% inhibition) in experiment [1] was 3050 nM; in experiment [2], 7550 nM; in experiment [3] it was greater than 10000 nM.
`C=CC(O)c1cccc(-c2nc(N3CCOCC3)c3ccc4c(ccn4C)c3n2)c1` (stereo not drawn) [Example 26, 1-[3-(7-methyl-4-morpholin-4-yl-7H-pyrrolo[2,3-h]quinazolin-2-yl)phenyl]prop-2-en-1-ol]: the IC50 in experiment [1] was 2100 nM; in experiment [2], 5420 nM; in experiment [3], greater than 10000 nM.
Turning to `CCN1CCC(S(=O)(=O)n2ccc3c4nc(-c5ccc(NC(=O)Nc6ccncc6)cc5)nc(N5CCOCC5)c4ccc32)CC1` [Example 64, 1-(4-{7-[(1-ethylpiperidin-4-yl)sulfonyl]-4-morpholin-4-yl-7H-pyrrolo[2,3-h]quinazolin-2-yl}phenyl)-3-pyridin-4-ylurea], the results for the IC50 in experiment [1], in experiment [2] and in experiment [3] were 44 nM, 74 nM and 313 nM, respectively.
With `COCOc1cncc(-c2nc(N3CCOCC3)c3ccc4c(ccn4C)c3n2)c1` [Example 77, 2-[5-(methoxymethoxy)pyridin-3-yl]-7-methyl-4-morpholin-4-yl-7H-pyrrolo[2,3-h]quinazoline], the 50% inhibitory concentration (IC50) was determined as 525 nM in experiment [1], 451 nM in experiment [2] and 933 nM in experiment [3].
The matching figures for “3-(7-methyl-4-morpholin-4-yl-7H-pyrrolo[2,3-h]quinazolin-2-yl)aniline [Example 41]”: 1450 nM, greater than 10000 nM and greater than 10000 nM.
In the case of `Cn1ccc2c3nc(-c4ccc(N)nc4)nc(N4CCOCC4)c3ccc21` [Example 42, 5-(7-methyl-4-morpholin-4-yl-7H-pyrrolo[2,3-h]quinazolin-2-yl)pyridin-2-amine], the results for the IC50 in experiment [1], in experiment [2] and in experiment [3] were 630 nM, 616 nM and 3590 nM, respectively.
The matching figures for `CN(C)CCn1ccc2c3nc(-c4cccc(OCc5ccccc5)c4)nc(N4CCOCC4)c3ccc21` [Example 31, 2-{2-[3-(benzyloxy)phenyl]-4-morpholin-4-yl-7H-pyrrolo[2,3-h]quinazolin-7-yl}-N,N-dimethylethanamine]: greater than 20000 nM, 4030 nM and 2480 nM.
Take `Nc1ncc(-c2nc(N3CCOCC3)c3ccc4c(ccn4S(=O)(=O)c4ccccc4)c3n2)cn1` [Example 71, 5-[4-morpholin-4-yl-7-(phenylsulfonyl)-7H-pyrrolo[2,3-h]quinazolin-2-yl]pyrimidin-2-amine]: the IC50 in experiment [1] was 545 nM; in experiment [2], 52 nM; in experiment [3] it was 114 nM.
Regarding `Nc1ncc(-c2nc(N3CCOCC3)c3ccc4[nH]ccc4c3n2)cn1` [Example 58, -(4-morpholin-4-yl-7H-pyrrolo[2,3-h]quinazolin-2-yl)pyrimidin-2-amine], the 50% inhibitory concentration (IC50) in experiment [1] amounted to 155 nM; in experiment [2] it was 102 nM; in experiment [3] it was 471 nM.
As for `CN(C)CCn1ccc2c3nc(-c4cnc(N)nc4)nc(N4CCOCC4)c3ccc21` [Example 34, 5-{7-[2-(dimethylamino)ethyl]-4-morpholin-4-yl-7H-pyrrolo[2,3-h]quinazolin-2-yl}pyrimidin-2-amine], the IC50 in experiment [1] was 1300 nM; in experiment [2], 201 nM; in experiment [3], 3190 nM.
The matching figures for `Cn1ccc2c3nc(-c4ccc(NC(=O)c5cccnc5)cc4)nc(N4CCOCC4)c3ccc21` [Example 17, N-[4-(7-methyl-4-morpholin-4-yl-7H-pyrrolo[2,3-h]quinazolin-2-yl)phenyl]nicotinamide]: 1400 nM, greater than 10000 nM and 9850 nM.
For the compound `CC(C)N1CCC(S(=O)(=O)n2ccc3c4nc(-c5ccc(NC(=O)Nc6ccncc6)cc5)nc(N5CCOCC5)c4ccc32)CC1` [Example 65, 1-(4-{7-[(1-isopropylpiperidin-4-yl)sulfonyl]-4-morpholin-4-yl-7H-pyrrolo[2,3-h]quinazolin-2-yl}phenyl)-3-pyridin-4-ylurea], the IC50 is 73 nM in experiment [1], 48 nM in experiment [2] and 300 nM in experiment [3].
For `Cn1ccc2c3nc(-c4ccc(NC(=O)Nc5ccccc5)cc4)nc(N4CCOCC4)c3ccc21` [Example 10, 1-[4-(7-methyl-4-morpholin-4-yl-7H-pyrrolo[2,3-h]quinazolin-2-yl)phenyl]-3-phenylurea], the results for the IC50 in experiment [1], in experiment [2] and in experiment [3] were 21 nM, 71 nM and 247 nM, respectively.
On to `CC(C)CC(O)c1cccc(-c2nc(N3CCOCC3)c3ccc4c(ccn4C)c3n2)c1` (stereo not drawn) [Example 28, 3-methyl-1-[3-(7-methyl-4-morpholin-4-yl-7H-pyrrolo[2,3-h]quinazolin-2-yl)phenyl]butan-1-ol], for which the values for the IC50 in experiment [1], in experiment [2] and in experiment [3] were 2700 nM, 2510 nM and 4520 nM, respectively.
On to `Cn1ccc2c3nc(-c4ccc(NC(=O)NCc5ccccn5)cc4)nc(N4CCOCC4)c3ccc21` [Example 15, 1-[4-(7-methyl-4-morpholin-4-yl-7H-pyrrolo[2,3-h]quinazolin-2-yl)phenyl]-3-(pyridin-2-ylmethyl)urea], for which the values for the IC50 in experiment [1], in experiment [2] and in experiment [3] were 2150 nM, 2520 nM and 3310 nM, respectively.
The matching figures for “2-(1H-indol-4-yl)-7-methyl-4-morpholin-5-yl-7H-pyrrolo[2,3-h]quinazoline [Example 49]”: 340 nM, 6310 nM and 4660 nM.
For `COc1ncc(-c2nc(N3CCOCC3)c3ccc4c(ccn4C)c3n2)cn1` [Example 50, 2-(2-methoxypyrimidin-5-yl)-7-methyl-4-morpholin-4-yl-7H-pyrrolo[2,3-h]quinazoline], in that order: 2350 nM, 668 nM and greater than 10000 nM.
For `Oc1cccc(-c2nc(N3CCOCC3)c3ccc4c(ccn4Cc4ccccc4)c3n2)c1` [Example 46, 3-(7-benzyl-4-morpholin-4-yl-7H-pyrrolo[2,3-h]quinazolin-2-yl)phenol], in that order: 420 nM, 216 nM and 209 nM.
`O=C(Nc1ccncc1)Nc1ccc(-c2nc(N3CCOCC3)c3ccc4c(ccn4S(=O)(=O)C4CCNCC4)c3n2)cc1` [Example 62, 1-{4-[4-morpholin-4-yl-7-(piperidin-4-ylsulfonyl)-7H-pyrrolo[2,3-h]quinazolin-2-yl]phenyl}-3-pyridin-4-ylurea]: the IC50 came out at 28 nM in experiment [1], 114 nM in experiment [2] and 519 nM in experiment [3].
For `Cn1ccc2c3nc(-c4cc(O)ccc4Cl)nc(N4CCOCC4)c3ccc21` [Example 53, 4-chloro-3-(7-methyl-4-morpholin-4-yl-7H-pyrrolo[2,3-h]quinazolin-2-yl)phenol], the IC50 in experiment [1] came out at 910 nM; in experiment [2], 214 nM; in experiment [3] it was 1010 nM.
